Data on eleven compounds can be found in patent US5198461A, “Isatine derivatives, their preparation and use” (NeuroSearch A/S, priority 1989, dated 1993).

Structures are written as SMILES. pIC50: −log10 of the molar value.

Experiment [1] concerns the target 3H-kainate, 3H-AMPA and/or 3H-glycine binding sites. The experiment in a line: Kainate, quisqualate (3H-AMPA) and glycine binding assays. Conditions: site(s) not specified per compound ('and/or'). On the procedure:
The quisqualate binding assay was performed as described by T. Honore et al., Neuroscience Letters 54, 27-32 (1985).
The kainate binding assay was performed as described by T. Honore et al., Neuroscience Letters 65, 47-52 (1986).
The glycine binding assay was performed as described by W. Frost White et al., Journal of Neurochemistry 53(2), 503-512 (1989).

Experiment [2] concerns quisqualate-induced clonic seizures in male DBA/2 mice. The experiment in a line: Quisqualate-induced clonic seizures. Conditions: Mus musculus, iv, quisqualate icv, test compound i.v. 5 min before, given as 'quisqualate or NMDA-induced convulsions', read-out: ED50, inhibition of quisqualate-induced convulsions. The class given is in vivo. The protocol:
Quisqualate given icv (intracerebroventricular) to DBA/2 mice induces clonic seizures which can be inhibited by both NMDA and non-NMDA receptor antagonists after i.v. administration.
Test compound was given i.v. 5 min before a 20 pg icv administration of quisqualate to 10 male DBA/2 mice (weighing 10-12 g) per dose. The number of mice experiencing clonic seizures within the next 2 min was noted. An ED50 value was calculated as the dose inhibiting 50% of the mice from having clonic seizures.

The subject of experiment [3] is ATPA-induced rigidity in female NMRI mice. The experiment in a line: ATPA-induced rigidity. The class given is in vivo. Conditions: Mus musculus, 15 mg/kg ATPA i.v., test compound i.v. or p.o., read-out: ED50, inhibition of ATPA-induced rigidity. On the procedure: The selective quisqualate receptor agonist ATPA induces rigidity in female NMRI mice at doses between 3 and 15 mg/kg and clonic-tonic seizures and death, probably due to respiratory arrest, at doses between 15 and 40 mg/kg after intravenous (i.v.) administration.
ATPA ((RS)-α-amino-3-hydroxy-5-tert-butyl-4-isoxazolepropionic acid) was dissolved in distilled water and test compound was dissolved in a polyoxyl 40 hydrogenated castor oil (5% Cremophor RH™ 40 (BASF)).
Test compound was administered either i.v. 5, 30 or 120 min before or p.o. 30 min before an i.v. administration of 15 mg/kg of ATPA to 8 female NMRI mice per dose and the number of mice experiencing rigidity 5 min later was noted. An ED50 value was calculated from at least three doses of test compound as the dose inhibiting 50% of the mice from having rigidity.

Experiment [4] deals with NMDA-induced clonic seizures in male NMRI mice. As to the kind of experiment: NMDA-induced clonic seizures. It is filed as in vivo. Conditions: Mus musculus, iv, NMDA icv, test compound i.v. 5 min before, given as 'quisqualate or NMDA-induced convulsions', read-out: ED50, inhibition of NMDA-induced convulsions. The protocol:
NMDA give icv to NMRI mice induces clonic seizures which can be inhibited by NMDA receptor antagonists.
Test compound was given i.v. 5 min before a 0.5 μg icv administration of NMDA to 10 male NMRI mice per dose. The number of mice experiencing clonic seizures within the next 2 min was noted. An ED50 value was calculated as the dose inhibiting 50% of the mice from having clonic seizures.

The test system of experiment [5] is cocaine-induced hypermotility in female NMRI mice. The experiment in a line: Cocaine-induced hypermotility. The class given is in vivo. Conditions: Mus musculus, po, administered orally, 25 mg/kg cocaine i.p., read-out: ED50, antagonism of cocaine-induced hypermotility. From the text:
Quisqualate and kainate administered locally induce an increase in dopamine release in nucleus accumbens and nucleus caudatus accompanied by stereotype behaviour such as hyperlocomotion, rearing, sniffing and grooming. These effects can be inhibited by selective quisqualate antagonists administered locally by the micro-dialyses method.
Also the dopamine uptake inhibitor cocaine administered s.c. induce hypermotility which can be inhibited by an administration of the glutamate antagonist GDEE into nucleus accumbens.
Test compound was administered orally at doses of 0.1, 1, 10 and 30 mg/kg 30 min before the administration of 25 mg/kg cocaine i.p. to female NMRI mice and the locomotor activity of 2 mice per box was measured for the next 2 hours by use of 8 infrared photobeams per box. The mice had been adapted to the box for at least 16 hours to avoid exploratory motility (neophobia).

By pIC50 is commonly meant the IC50 on a negative log10 scale, so that one unit is a factor of ten. High values mean a low IC50, low ones a high IC50. `O=C1Nc2c(ccc3ccccc23)C1=NO` [1H-benz[g]indole-2,3-dione-3-oxime] had a pIC50 in experiment [1] of 4.00 to 5.00.

One may read the ED50 as the dose that gives a 50% effect, or the effect in half of the subjects. Consider `CCOC(=O)CN1C(=O)C(=NOC)c2cc([N+](=O)[O-])cc([N+](=O)[O-])c21` [5,7-dinitro-1-(ethoxycarbonylmethyl)-1H-indole-2,3-dione-3-(O-methyloxime)], for which the median effective dose (ED50) in experiment [2], in experiment [3] and in experiment [4] was 0.1 to 10 mg/kg throughout.

For `CON=C1C(=O)N(C)c2c1cc([N+](=O)[O-])cc2[N+](=O)[O-]` [5,7-dinitro-1-methyl-1H-indole-2,3-dione-3-(O-methyloxime)], the ED50 in experiment [2] was in the range of 0.1 to 10 mg/kg; in experiment [3], 0.1 to 10 mg/kg; in experiment [5] it was 0.5 to 1 mg/kg; in experiment [4], 0.1 to 10 mg/kg.

In experiment [1], `CN1C(=O)C(=NO)c2cc([N+](=O)[O-])cc([N+](=O)[O-])c21` [5,7-dinitro-1-methyl-1H-indole-2,3-dione-3-oxime] had a pIC50 of 4.00 to 5.00.

Consider `O=C1Nc2c(cc([N+](=O)[O-])cc2[N+](=O)[O-])C1=NO` [5,7-dinitro-1H-indole-2,3-dione-3-oxime], for which the negative logarithm of the IC50 (pIC50) in experiment [1] is 4.00 to 5.00.

The compound `CNS(=O)(=O)c1cc2c(c3c1CCCC3)NC(=O)C2=NO` [5-(N-methylsulphamoyl)-6,7,8,9-tetrahydro-1H-benz[g]indole-2,3-dione-3-oxime] had a pIC50 in experiment [1] of 4.00 to 5.00.

In the case of `O=C1Nc2c(cc(S(=O)(=O)NOCc3ccccc3)c3c2CCCC3)C1=NO` [5-(benzyloxysulphamoyl)-6,7,8,9-tetrahydro-1H-benz[g]indole-2,3-dione-3-oxime], the pIC50 in experiment [1] is 4.00 to 5.00.

`O=C1Nc2c(cc(Br)cc2[N+](=O)[O-])C1=NO` [5-bromo-7-nitro-1H-indole-2,3-dione-3-oxime] gave a negative-log IC50 (pIC50) in experiment [1] of 4.00 to 5.00.

For `O=C1Nc2c(cc([N+](=O)[O-])c3c2CCCC3)C1=NO` [5-nitro-1H-6,7,8,9-tetrahydro-benz[g]indole-2,3-dione-3-oxime], the pIC50 in experiment [1] was 4.00 to 5.00.

In experiment [1], `O=C1Nc2c(cc([N+](=O)[O-])c3ccccc23)C1=NO` [5-nitro-1H-benz[g]indole-2,3-dione-3-oxime] showed a pIC50 of 4.00 to 5.00.

`O=C1Nc2ccc([N+](=O)[O-])cc2C1=NO` [5-nitro-1H-indole-2,3-dione-3-oxime] gave a negative-log IC50 (pIC50) in experiment [1] of 4.00 to 5.00.
